# “Also recorded” adds a separate entry of the source. Like-named read-outs stand apart in the source and are kept apart here.
# Experiments:
# SARS-CoV-2 [1] = type: cell-based
# Vero 81 cells = conditions: Vero 81, highest 50 μM concentration point
# Vero e6 cells = conditions: Vero e6, highest 50 μM concentration point
# SARS-CoV-2 [2] = conditions: cited from earlier work
# [3] = biological target: wild-type Nsp9COV19 as substrate of Nsp12COV19 NiRAN domain (Severe acute respiratory syndrome coronavirus 2, UniProt P0DTD1); type: biochemical; conditions: for Nsp9COV19 Cy3-modification, % of the signal of DMSO-only control reactions: 500 μM compound, 15 μM Nsp9COV19, 1 μM Nsp12COV19, triplicate
# Nsp9COV19 = Nsp9COV19 (Severe acute respiratory syndrome coronavirus 2, UniProt P0DTD1); parameters: species or system SARS-CoV-2; conditions: native MS; binding ratios after incubation with 50 μM of each compound
SMILES,viral titer following SARS-CoV-2 infection (SARS-CoV-2 [1]),"viral titer following SARS-CoV-2 infection (SARS-CoV-2 [1]; Calu-3 cells, 15 μM, after 24 h)","viral titer following SARS-CoV-2 infection (SARS-CoV-2 [1]; Calu-3 cells, 15 μM, later time points (48, 72 h))",effect on cell proliferation (MTT) (Calu-3 cells),effect on cell proliferation (MTT) (Vero 81 cells),effect on cell proliferation (MTT) (Vero e6 cells),SARS-CoV-2 replication in in vitro cellular assays (SARS-CoV-2 [2]),"Nsp9COV19 Cy3-modification, % of the signal of DMSO-only control reactions [3] [%]","inhibition of UMPylation reaction (in words) ([3]; UMPylation assays, discussion)",relative Nsp9COV19 binding / affinity (in words) (Nsp9COV19)
"C=C1C(=O)[C@]23[C@H](O)[C@H]1CC[C@H]2[C@@]12CO[C@]3(O)[C@@H](O)[C@@H]1C(C)(C)CC[C@@H]2O [Compound 1, Oridonin]",reduce viral tite at all time points,approximately fivefold reduced,not maintained at later time points,no effect on cell proliferation detected,a degree of reduced proliferation,a degree of reduced proliferation,inhibit SARS-CoV-2 replication,20 ± 6,significant levels of inhibition,
"C=C1C(=O)[C@]23[C@H](O)[C@H]1CC[C@H]2[C@@]12CO[C@@]3(O)[C@@H](O)[C@@H]1[C@](C)(COC(C)=O)CC[C@H]2O [Compound 3, Xerophilusin G]",,,,,,,,,,significantly reduced binding response; also recorded: abrogated binding completely
"C=C1C(=O)[C@@]23[C@H](O)C[C@@H]4C(C)(C)CC[C@H](O)[C@@]4(CO)[C@@H]2CC[C@@H]1[C@H]3O [Compound 6, Kamebakaurin]",,,,,,,,~66,,some ability to cocomplex with Nsp9COV19 is retained
